“And” between values parts separate entries of the source, which are not always exact repeats. Equal values may be shown once. “Also recorded” adds a separate entry of the source. Marks after values point to notes of the source that are not given here.
What was measured:
[1] = test system: bFGF-induced angiogenesis in rat corneas; experiment: Corneal angiogenesis, implanted hydron pellets; assay type: in vivo; settings: pellets with bFGF 100 ng, alone or plus ST104P 500 ng, day 7
Method: FIG. 8. […] The asterisk represents the place of hydron pellet implantation. (B) The neovascularization in rat corneas after implantation bFGF hydron pellets or pellets containing bFGF and ST104P. The length (panel a) and area (panel b) of neovascularized vessels in rat corneas were measured after implantation for 3-7 days. Data are means±SEM (n=8 per group). *P<0.01.
(§1) All rats were handled in accordance with the Association for Research in Vision and Ophthalmology Resolution on the Use of Animals in Research. Male Sprague-Dawley rats (300-350 g, Animal Center, National Science Counsel, Taipei, Taiwan) were used in this study. All surgical procedures were performed using sterile techniques. The rats were placed under anesthesia with 3% isoflurane in an O2/room air mixture (1:1). Additional topical anesthesia (0.4% benoxinate hydrochloride, Ciba Vision Ltd., Hettlingen, Switzerland) was applied to the corneal surface. The eyes were exposed by grasping the temporal limboconjunctiva using a jeweler's forceps and the central-peripheral corneal intrastromal lamellar pocket (0.6×1.5×1 mm for depth×length×width) was dissected with a surgical blade (Paragon no. 11; Maersk Medical LTD, Sheffield, England). The pockets were extended 1.5 to 2 mm away from the limbus. The pellet was grasped by smooth forceps from the refrigerator (−20° C.) and immediately implanted into the corneal stromal pocket in each eye. Topical antibiotic ointment (0.3% gentamycin; Alcon Cusi, Spain) was applied to the corneal surface to reduce irritation and prevent infection.
Implanting Hydron Pellets
(§2) Biomicroscopic Examination
(§3) Examinations were made with a dissecting microscope and results were photographed on days 3, 5 and 7. Under anesthesia, the maximum vessel length and width of the neovascularization in rat eyes were measured and calibrated using a microscale (Nikon, Tokyo, Japan). The area of neovascularization of the cornea was determined from the dimensions of the triangular growth pattern of the vessels. Photographs of the corneal angiogenesis assay were obtained and digitized in a 640×480 pixel matrix, using a digital camera CoolPix 995 (Nikon, Tokyo, Japan). The operator was blinded to experimental design. Areas containing blood vessels were traced on the computer monitor and calculated with image analysis software (Scion Image 4.02; Scion, Maryland, USA) and reported in square millimeters with determinations. The biomicroscopic assessment was conducted by two independent observers.
(§4) To analyze the differences between groups, Mann-Whitney U test analysis with two-tailed probability was used and a P value of less than 0.05 was considered significant. Results are presented as means±SEM (standard error of the mean). For each experiment, surgery was performed on all animals in a standardized fashion, and animals were randomized to the different treatment and control groups.

BAEC [2] = settings: incubation 6 h, bFGF 100 ng/ml
Method: (§5) FIG. 2. […] After trypsinization, endothelial cells were applied to top wells in Boyden chamber to initiated migration toward chemoattractant bFGF (100 ng/ml) in the bottom wells. The migrated cells on filter were stained and counted. Each point represents mean±SEM of triplicate experiments.
(§6) The compartments were separated by a polycarbonate filter (8-μm pore size; Nucleopore, Costar, Cambridge, Mass.) coated with 0.005% gelatin to allow cell adhesion. After incubation for 2-4 h in a humidified 5% CO2 atmosphere at 37° C., cells on the upper side of the filter were removed, and those that had migrated to the lower side were fixed in absolute ethanol, stained with 10% Giemsa solution (Merck, Germany), and counted as a mean±SD per filter under five different high power fields.

EA.hy926 = settings: EA.hy926, incubation 6 h, bFGF 100 ng/ml
Method: as §5, §6

[3] = test system: BAEC, HUVEC, EA.hy926 cells, 3T3 cells, GH3 cells, C6 cells, HepG2 cells, SK-Hep-1 cells, MDCK cells; experiment: Morphological analysis of endothelial and non-endothelial cells; assay type: cell-based; settings: all types of cells tested; data not shown
From the text: (§7) FIG. 1. […] The pictures were taken at 400× magnification. […] Each data represent mean±SD of quadruplicate experiments. Asterisks indicated statistic significance versus control (P<0.001).

[4] = test system: secretion of MMP-9 by endothelial cells; experiment: MMPs gelatin zymography of conditioned media of endothelial cells; assay type: cell-based; settings: endothelial cells (BAEC, EA.hy926), even at dose as low as 10 μg/ml, 24 h
Method: (§8) Matrix Metalloproteinases (MMPs) Zymography
(§9) Secretion of MMPs by endothelial cells was assessed by 0.1% gelatin-SDS-PAGE zymography. Briefly, endothelial cells near 80% confluence were washed twice with serum-free media and treated with various doses of vasostatin for 24-48 h. Conditioned media were collected and assayed for protein concentration by Bradford assay. Aliquots of conditioned media were subjected to separation with 10% SDS-PAGE containing 0.1% type A gelatin (Sigma; St. Louis, Mo.). After electrophoresis, gel was washed twice with 2.5% Triton X-100, incubated in buffer containing 40 mM Tris-HCl, pH […], 0.01% sodium azide at 37° C. for 12-24 h, stained with 0.25% Coomassie Blue R-250 in 50% methanol and 10% acetic acid for 1 h, and destained with 10% acetic acid, 20% methanol. The gelatinolytic regions by MMPs were visualized as white bands in blue background.

[5] = test system: secretion of MMP-2 by endothelial cells; experiment: as above; assay type: cell-based; settings: endothelial cells (BAEC, EA.hy926), even at dose as low as 10 μg/ml, 24 h
Method: as §8, §9

[6] = Tolerability in animals via various routes (data not shown); assay type: in vivo; settings: oral or intravenous, intraperitoneal, and intratumor injection
BAEC [7] = experiment: Tube formation assay in Matrigel; assay type: cell-based, Bovine; settings: ST104P 20-100 μg/ml
Method: FIG. 3. ST104P abolished the tube formation of endothelial cells. […] Endothelial cells were applied to Matrigel-coated plate in the absence or presence of ST104P. After 8 h, the tubular structures of BAEC cells were monitored and recorded under light microscopy. The pictures were taken at 400× magnification.
Matrigel (Becton Dickinson; Bedford, Mass.) was diluted with cold serum-free medium to 10 mg/ml. Two hundred μl of the diluted solution were added to each well in 24-well plate and allowed to form a gel at 37° C. for 30 min. […] Two hundred μl of the cell suspension (3×10^4 cells) were then subsequently added to each well and incubated for 6-8 h at 37° C. in 5% CO2. Under these conditions endothelial cells form delicate networks of tubes that are detectable within 2-3 h and are fully developed after 8-12 h.

EA.hy926 cells = experiment: Tube formation assay in Matrigel; assay type: cell-based, Human; settings: ST104P 20-100 μg/ml
[8] = test system: bFGF-induced corneal angiogenesis; experiment: Corneal angiogenesis, topical application of eye drops; assay type: in vivo
Method: FIG. 9. […] (A) Representative photographs of basic fibroblast growth factor (bFGF)-implanted corneas after topical application of control (phosphate buffered saline, PBS) eye drop (left panel) and ST104P-containing eye drop (50 μg/ml, middle panel; 100 μg/ml, right panel) for 7 days. The asterisk represents the place of hydron pellet implantation. […] Data represent mean±SEM (n=8 per group).
FIG. 10. Histological analysis of basic fibroblast growth factor (bFGF)-implanted rat cornea after ST104P eye drop treatment. After eye drop treatment for 7 days, the bFGF-implanted rat corneas were harvested and stained with hematoxylin and eosin (200×). […] Neocapillaries (arrowheads) are prominent in the corneal stroma.
as §1
Topical Application of ST104P
as §2, §3
After treatment, the rat corneas were dissected and fixed in […]. The […]-embedded tissues were sectioned in 5-μm slices, mounted on poly-L-lysine-coated slides and subjected to hematoxylin and eosin staining.
as §4

different types of cells = experiment: Cell proliferation assay, different types of cells; assay type: cell-based; settings: dose-dependent, 10-500 μg/ml, 48 h
From the text: as §7

[9] = test system: neovascularization in chicken embryos (CAM); experiment: Chorioallantoic membrane (CAM) assay
Method: The angiogenesis profiles on CAMs were recorded under dissection microscope.
Chorioallantoic Membrane (CAM) Assay
Briefly, fertilized White Leghorn chicken eggs were purchased from Taiwan Provincial Research Institute for Animal Health (Hsin-Chu, Taiwan) and incubated at 37° C. with 60% humidity. On day 3, a square window was opened in the shell, and 2 to 3 ml of albumen was removed to allow detachment of the developing CAM. The window was sealed with a glass, and the eggs were returned to the incubator. […] The CAMs were examined daily until day 10-12, when the angiogenic response peaks, and photographed in ovo with a stereomicroscope equipped with Zeiss MC63 camera system (Zeiss, Oberkochen, Germany). The experiments were carried out using 10 eggs per group.

Water solubility = assay type: physicochemical
[10] = test system: bFGF-induced angiogenesis in rat corneas; experiment: Corneal angiogenesis, implanted hydron pellets; assay type: in vivo; settings: for Area (mm^2) of neovascularization / Length (mm) of new vessels: day 7
Lewis lung carcinoma = experiment: Treatment of Lewis lung carcinoma in mice; assay type: in vivo
Method: FIG. 6. […] The subcutaneous dorsa of mice were implanted with Lewis lung carcinomas. […] Each point represents mean±SEM for ten mice.
FIG. 7. […] The subcutaneous dorsa of mice were implanted with Lewis lung carcinomas. […] Each point represents mean±SEM for ten mice.
Animal study was carried out in the animal facility of Kaohsiung Veterans General Hospital in accordance with institutional guidelines. Male C57BL/6J mice (6- to 8-week-old; Animal Center of National Cheng Kung University, Taiwan) were used. Mice were acclimated and caged in groups of four or less. All mice were fed with a diet of animal chow and water ad libitum. Animals were anesthetized in a methoxyflurane chamber prior to all procedures and were observed until fully recovered. Animals were sacrificed by a lethal dose of methoxyflurane.
Treatment of Lewis Lung Carcinoma
C57BL/6J mice were implanted with Lewis lung carcinomas cells using the techniques described previously (O'Reilly et al., Cell 88, 277-285, 1997). Briefly, the LL2 Lewis lung carcinoma cells were resuspended in PBS at the concentration of 2.5×10^6 cells per ml and injected into C57B16/J mice (n=20) with 0.1 ml of the cell suspension to induce tumor. Tumors were measured with a dial-caliper and volumes were determined using the formula width^2×length×0.52. […] In addition, the survival rate of mice in different groups was recorded and analyzed by Kaplan-Mier Survival analysis.

[11] = ST104P 500 ng pellet without bFGF
[12] = ST104P 1000 ng pellet without bFGF

bFGF: Recombinant basic fibroblast growth factor, used as chemoattractant and as inducer of corneal angiogenesis in hydron pellets [reference compound]
Area (mm^2) of neovascularization [1]: 1.42±0.28 mm^2
Length (mm) of new vessels [1]: 1.36±0.4 mm and 1.36 ± 0.40 mm

tetrameric cyclic compound of 4,5-dihydroxynaphthalene-2, 7, disulfonic acid linked by methylene bridges [ST104P]
IC50, migration toward chemoattractant bFGF (BAEC [2]): 100 µg/mL
IC50, migration toward chemoattractant bFGF (EA.hy926): 100 µg/mL
cytotoxicity by morphological analysis [3]: not very toxic
secretion of MMP-9 [4]: potently inhibited
secretion of MMP-2 [5]: potently inhibited
tolerability in animals [6]: well tolerated
vessel-like (tube) structure in Matrigel (BAEC [7]): effectively abolished
vessel-like (tube) structure in Matrigel (EA.hy926 cells): effectively abolished
Area (mm^2) of neovascularization ([1]; listed as bFGF + ST104P): 0.12 ± 0.11* mm^2
Length (mm) of new vessels ([1]; listed as bFGF + ST104P): 0.17 ± 0.06* mm
Area (mm^2) of neovascularization ([1]; listed as bFGF plus ST104P): 0.12±0.11 mm^2
Length (mm) of new vessels ([1]; listed as bFGF plus ST104P): 0.17±0.06 mm
average vessel length ([8]; ST104P eye drop 100 μg/ml three times daily, day 7, PBS eye drop 1.36±0.4, P<0.01): 0.39±0.15 mm
neovascularized area ([8]; ST104P eye drop 100 μg/ml three times daily, day 7, PBS eye drop 1.42±0.28, P<0.01): 0.28±0.19 mm^2
effect on bFGF-induced cornea angiogenesis ([8]; ST104P eye drop 10-20 μg/ml): did not elicit inhibitory effect
neovascularization by histological analysis ([8]; ST104P eye drops 50 and 100 μg/ml, 7 days, hematoxylin and eosin): no significant neovascularization
toxicity to the cornea / other eye cells by histological analysis ([8]; ST104P eye drops, 7 days): appears normal histologically without apparent adverse effects; also recorded: without overt cytotoxicity
proliferation in different types of cells (different types of cells): moderately inhibited the proliferation
inhibition of angiogenesis in CAM ([9]; 50 μg per CAM, 8-day old chick embryos): 50%
mortality of chick embryos ([9]; 200 μg per CAM, 9 out of 10 died): 90%
water solubility (Water solubility): excellent water solubility
Area (mm^2) of neovascularization [10, 11]: 0 mm^2
Length (mm) of new vessels [10, 11]: 0 mm
Area (mm^2) of neovascularization [10, 12]: 0 mm^2
Length (mm) of new vessels [10, 12]: 0 mm
induction of neovascularization by pellets without bFGF ([10]; ST104P pellets alone in rat corneas): did not induce neovascularization
weight loss or adverse effects in treated mice (Lewis lung carcinoma; ST104P 100 μg injection): no evident weight loss or adverse effects
decrease of tumor size versus saline-treated group (Lewis lung carcinoma; ST104P 100 μg injection, four times): ~40%
average tumor size (Lewis lung carcinoma; ST104P 100 μg injection, four times, saline group 4876±670, P<0.05): 2620±320 mm^3
survival of tumor-bearing mice (Lewis lung carcinoma; ST104P 100 μg, versus vehicle, Kaplan-Meier): significantly enhanced the survival rates; also recorded: survived significantly longer
